Data published in PMC7915902, “Preclinical Evaluation of [^18F]FACH in Healthy Mice and Piglets: An ^18F-Labeled Ligand for Imaging of Monocarboxylate Transporters with PET” (International Journal of Molecular Sciences, 2021).

How the values were obtained:
plasma protein = assay: Plasma protein binding in vitro (ultrafiltration); format: in vitro ADME, piglet; conditions: pig plasma, 20 min at 37 °C
Experimental: To measure plasma protein binding in vitro, a 1 mL portion of piglet plasma was incubated with 4.9 MBq [^18F]FACH (10 µL) on a shaker (400 rpm) for 20 min at 37 °C. The plasma protein binding was also measured ex vivo in 10 µL portions of mouse plasma from retro-orbital blood samples collected 70 min after intravenous (i.v.) injection of 3.7 MBq [^18F]FACH via a tail vein. The free and bound fractions of [^18F]FACH were separated by centrifugation at room temperature (2000 g for ten minutes, Centrifree® YM-30, Ultrafiltration Device; Merck KGaA, Darmstadt, Germany). Radioactivity was measured in aliquots of ultrafiltrate and in prefiltration plasma samples, using a Wizard 2470 γ-counter (PerkinElmer LAS, Rodgau, Germany), and the free fraction in the plasma (fp) calculated from the concentration ratio.

MCT4 = test system: MCT4; parameters: method as in PMID 31017677; conditions: L-[14C]lactate uptake, MDA-MB231 cells; read-out: IC50 towards MCT4; cited from earlier work
MCTs [1] = assay: Autoradiographic saturation binding (homologous displacement) in mouse kidney cryosections
Experimental: Cryosections from the mouse kidney (10 µm) were cut on a microtome (Microm HM560, Thermo Scientific Microm, Fisher Scientific GmbH, Schwerte, Germany), mounted on glass slides (SuperFrost, Thermo Scientific Menzel, Fisher Scientific GmbH), dried for two hours at room temperature, and stored at −25 °C. Before the binding experiment, the tissue slices were dried under a stream of cold air, pre-incubated with PBS (pH 7.4) for 15 min at room temperature and dried again before incubation with PBS containing [^18F]FACH (1.2 nM) without (total binding) and with different concentrations of FACH-Na (10 µM–0.1 nM; homologous competition) for 60 min. Specific binding to MCTs of [^18F]FACH in cryosections of mouse kidney was determined after co-incubation of 1 nM [^18F]FACH with vehicle or 300 nM α-CCa-Na or 300 nM reference compound (homologous competition).
The incubation was terminated by washing with ice-cold buffer (50 mM TRIS-HCl, pH 7.4) twice for two minutes followed by dipping in ice-cold demineralized water for 5 s and drying under a stream of cold air. The dried sections along with activity standards (1 µL aliquots of different dilutions of the incubation solution dried on microscopic slides) were exposed to phosphor imaging plates (FujiFilm Co., Tokyo, Japan) transferred after 120 min to a phosphor imager (HD-CR 35 Bio; Dürr NDT GmbH & Co. KG, Bietigheim-Bissingen, Germany). Regions of interest (ROIs) were drawn manually or automatically on the tissue slices or standard spots, and the pixelwise results converted to Bq/mg wet weight. Non-linear regression analysis was performed with GraphPad Prism (v.3.0 GraphPad Software, San Diego, CA, USA). KD and Bmax values were calculated by the simplified Cheng and Prusoff equation (http://www3.uah.es/farmamol/Public/GraphPad/radiolig.htm, accessed on 5 February 2021):(1) KD=Ki=IC50−Radioligand (M) (2) Bmax=Top−Bottom/Radioligand (M)/(KD+Radioligand (M))

MCTs [2] = assay: Compartmental kinetic modelling of PET data in mice; format: in vivo, mouse; conditions: for K1 / VT / k2: 1-TCM; for K1 (representative 1-TCM curve fit) / k2 (representative 1-TCM curve fit): control study, Figure S12
Experimental: Table 4 includes the results of 1-tissue-compartment kinetic modelling (1-TCM) of [^18F]FACH in the kidney cortex and the liver of the control and pre-treated mouse groups (α-CCA-Na and reference compound). […] The BPND was estimated as the ratio of [VT(control)/VT(pre-treatment)] − 1.
Kinetic analysis of reconstructed datasets was performed with PMOD software. First, image derived arterial input functions (IDIFs) were obtained from the left ventricle in mice and from an artery close to the kidney in piglet studies. IDIFs were corrected for partial volume effects, plasma fraction from hematocrit values (individually determined for each piglet directly before PET imaging; for mice set to 0.51 according to CD-1 Mouse Hematology sheet from Charles River Laboratories, 2011) and radio-metabolites (measured for piglets, and set to zero for mice). Tri-exponential metabolite-corrected fitted input functions were used for one and two tissue compartment modelling (1-TCM/2-TCM) of time activity curves (TACs) in tissue volumes of interest (VOIs). For both species the specific blood volume was set to 0.15 mL g^−1 in the kidney cortex and 0.128 mL g^−1 in the liver, according to published values.

For `CCCN(CCC[18F])c1ccc(/C=C(\C#N)C(=O)O)c(OC)c1` [[^18F]FACH, (E)-2-cyano-3-{4-[(3-[^18F]fluoropropyl)(propyl)amino]-2-methoxyphenyl}acrylic acid], the “free plasma fraction (fp)” value (plasma protein) is listed as 0.03, the IC50 (MCT4) is listed as 6.5 nM and the Kd (MCTs [1]; mouse kidney cortex (Co) cryosections) is listed as 118 ± 12 nM. It also gave a Kd (MCTs [1]; mouse kidney inner medulla (IM) cryosections) of 265 nM, a Kd (MCTs [1]; mouse kidney outer medulla (OM) cryosections) of 212 nM and a K1 (MCTs [2]; kidney cortex, control) of 0.13 ± 0.06 mL/g/min. For the same compound, the VT (MCTs [2]; kidney cortex, control) was 8.60 ± 4.55 mL/g, the k2 (MCTs [2]; kidney cortex, control) was 0.02 ± 0.01 min⁻¹ and the “K1 (2-TCM)” value (MCTs [2]; kidney cortex, 2-TCM, control) was 0.28±0.24 ml/ccm/min. For the same compound, the “VND (2-TCM)” value (MCTs [2]; kidney cortex, 2-TCM, control) was 1.77±2.49 ml/ccm, the “k2 (2-TCM)” value (MCTs [2]; kidney cortex, 2-TCM, control) was 1.54 ± 2.43 min⁻¹ and the “k3 (2-TCM)” value (MCTs [2]; kidney cortex, 2-TCM, control) was 0.77 ± 0.78 min⁻¹. For the same compound, the “k4 (2-TCM)” value (MCTs [2]; kidney cortex, 2-TCM, control) was 0.02 ± 0.02 min⁻¹, the “K1 (representative 1-TCM curve fit)” value (MCTs [2]; kidney cortex) was 0.16 mL/g/min and the “k2 (representative 1-TCM curve fit)” value (MCTs [2]; kidney cortex) was 0.04 min⁻¹. The K1 (MCTs [2]; liver, control) was 0.49 ± 0.24 mL/g/min, the VT (MCTs [2]; liver, control) was 6.47 ± 2.49 mL/g and the k2 (MCTs [2]; liver, control) was 0.08 ± 0.02 min⁻¹. For the same compound, the BPND (MCTs [2]; liver, (VT(control)/VT(pre-treated)) − 1) was 0.04, the “K1 (representative 1-TCM curve fit)” value (MCTs [2]; liver) was 0.40 mL/g/min and the “k2 (representative 1-TCM curve fit)” value (MCTs [2]; liver) was 0.09 min⁻¹.
